What was measured:
PARP14 = biological target: T1, PARP14 (Homo sapiens, UniProt Q460N5); experiment: NanoBRET probe displacement assay (Probe A) in live 293T cells, PARP14; assay type: cell-based; conditions: NanoBRET displacement of Probe A, NanoLuc-tagged PARP14 in live 293T cells
T1 sequence (Q460N5 1611-1801): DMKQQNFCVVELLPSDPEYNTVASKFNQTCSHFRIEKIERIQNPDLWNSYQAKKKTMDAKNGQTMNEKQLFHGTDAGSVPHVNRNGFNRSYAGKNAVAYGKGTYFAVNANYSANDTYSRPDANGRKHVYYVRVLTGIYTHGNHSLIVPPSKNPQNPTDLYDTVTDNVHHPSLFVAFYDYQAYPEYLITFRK
Description: MonoPARP genes from Table 5 were cloned into the pcDNA3.1-mammalian expression vector as a NanoLuc fusion with NanoLuc on the N- or C-terminus as indicated. The sequence of the NanoLuc tag is as follows: [table] Displacement of a fluorescently-labeled compound Probe A binding to NanoLuc-tagged monoPARP enzymes was measured in live cells using a bioluminescence resonance energy transfer (NanoBRET) assay. TIPARP, PARP10, PARP12 or PARP14 fused to a NanoLuc tag were overexpressed in 293T cells (ATCC) using the plasmids described herein. Plasmid DNA and empty vector DNA were added to phenol red free OptiMEM (Thermo Fisher) as shown in Table 6 in a total volume of 2.456 mL. 157 μL of Fugene HD (Promega) was added to the DNA mixture and allowed to incubate 5 min at 25° C. [table] Next, 2.375 mL of the plasmid-Fugene mixture were added to 20 million 293T cells in DMEM (Thermo Fisher) supplemented with 10% FBS (VWR). The transfection was incubated for 24 h at 37° C. in an incubator containing air supplemented with 5% CO2. The cells were resuspended in phenol red free OptiMEM media. 40 μL of cells were then added to white polystyrene 384-well non-binding surface microplate (Corning). […] Filtered luminescence was measured on an Envision (Perkin Elmer) equipped with a dual 585 nm mirror, 460±40 nm bandpass filter (donor) and 610±50 nm longpass filter (acceptor). […]

PARP12 = biological target: T2, PARP12 (Homo sapiens, UniProt Q9H0J9); experiment: In vitro TR-FRET probe displacement assay (Probe C), PARP12; assay type: binding; design: 489-684 of; conditions: TR-FRET displacement of Probe C, PARP12 residues 489-684
T2 sequence (Q9H0J9 489-684): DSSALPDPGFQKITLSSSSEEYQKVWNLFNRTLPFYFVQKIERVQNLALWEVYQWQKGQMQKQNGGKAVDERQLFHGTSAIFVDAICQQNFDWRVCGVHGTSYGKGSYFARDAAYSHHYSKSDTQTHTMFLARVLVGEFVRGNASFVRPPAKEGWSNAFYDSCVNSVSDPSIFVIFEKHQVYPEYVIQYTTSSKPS
Description: A portion of PARP12 (residues 489 to 684 of NP_073587.1 (SEQ ID NO: 3), GenBank Accession No. NM_022750.3) was overexpressed in Sf9 cells. An N-terminal fusion tag, MAHHHHHHENLYFQSM (SEQ ID NO: 8), was used to purify the protein from cell lysates. The fusion tag was left on the protein for use in the probe displacement assay.
Displacement of a Probe C binding to monoPARP active sites was measured using a time-resolved fluorescence resonance energy transfer (TR-FRET) assay. 20 nL of a dose response curve of each test compound was spotted in black 384-well polystyrene proxiplates (Perkin Elmer) using a Mosquito (TTP Labtech). Reactions were performed in a 8 μL volume by adding 6 μL of the monoPARP and Probe C in assay buffer (20 mM HEPES pH=8, 100 mM NaCl, 0.1% bovine serum albumin, 2 mM DTT and 0.002% Tween20), incubating with test compound at 25° C. for 30 min, then adding 2 μL of ULight-streptavidin and LANCE Eu-W 1024 Anti-6×His (Perkin Elmer). Binding reactions were equilibrated at 25° C. for an additional 30 min, then read on an Envision platereader equipped with a LANCE/DELFIA top mirror (Perkin Elmer) using excitation of 320 nm and emission of 615 nm and […] with a 90 μs delay. The ratio of the 665/615 nm emission were calculated for each well to determine the amount of complex of monoPARP and Probe C in each well. […]

IC50 (PARP14): 30 nM | IC50 (PARP12): 200 nM
SMILES: O=c1[nH]ncc(N2Cc3ccc(OC4CCNCC4)cc3C2)c1C(F)(F)F [Compound A, 5-[5-(Piperidin-4-yloxy)-2,3-dihydro-1H-isoindol-2-yl]-4-(trifluoromethyl)-2,3-dihydropyridazin-3-one]

From patent US11293927B2, “Screening methods for PARP modulators” (Ribon Therapeutics, Inc., priority 2018, dated 2022)
